Among the data in PubChem BioAssay (NCI) are TGI values, retold here.

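Cultured in 96-well plates, cells were exposed to test compound for 48 hours across five concentrations. At the TGI there is no net growth.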

Test systems include SN12C renal; RXF 393 renal; SNB-75 CNS; OVCAR-5 ovarian; HOP-62 NSCLC; SF-295 CNS; OVCAR-8 ovarian; NCI-H23 lung; HCT-116 colon; UACC-62 melanoma; SR leukemia; HT29 colon; RPMI-8226 leukemia; SK-MEL-2 melanoma; SF-268 CNS; HOP-92 NSCLC; SK-MEL-28 melanoma; MDA-MB-435.
Holding throughout (experiment): NCI-60 cell line screen, 48 h

With `CC(=O)c1ccccc1NC(=O)C(=O)C(C(=O)c1ccccc1-c1ccccc1)C1OC(=O)c2ccccc21` (configuration not stated), the TGI came out at 43.5 µM with SN12C renal; 25 µM with RXF 393 renal; 51.7 µM with SNB-75 CNS; 64.9 µM in the assay on OVCAR-5 ovarian; 44.9 µM in the assay on HOP-62 NSCLC; 52.4 µM in the assay on SF-295 CNS. Besides, the TGI in the assay with OVCAR-8 ovarian turned out to be 47.9 µM; with NCI-H23 lung it was 31 µM; in the assay with HCT-116 colon it was 32.5 µM; in the assay on UACC-62 melanoma, 38.8 µM; with SR leukemia, 88.9 µM; with HT29 colon, 56.1 µM. Moreover, the TGI in the assay on RPMI-8226 leukemia was greater than 100 µM; in the assay on SK-MEL-2 melanoma it was 40.5 µM.
With `CC1=NN2C(c3ccc([N+](=O)[O-])cc3)=CSC2=NC(C)(C)C1`, the TGI with SF-268 CNS, in the assay with SN12C renal, in the assay with RXF 393 renal, in the assay on SNB-75 CNS, in the assay on OVCAR-5 ovarian and with HOP-92 NSCLC was greater than 100 µM each time. For the same compound, the TGI in the assay with SK-MEL-28 melanoma, with HOP-62 NSCLC, in the assay with SF-295 CNS, in the assay with OVCAR-8 ovarian, in the assay on NCI-H23 lung and in the assay with HCT-116 colon was greater than 100 µM in each case. The TGI in the assay with UACC-62 melanoma, with SR leukemia, in the assay with HT29 colon, in the assay with RPMI-8226 leukemia and in the assay on SK-MEL-2 melanoma was greater than 100 µM throughout.
Consider `COc1cc([C@@H]2c3cc4c(cc3[C@@H](OC(=O)c3cccc(N)c3)C3COC(=O)[C@@H]32)OCO4)cc(OC)c1O` (some centres not stated), for which the TGI in the assay on SF-268 CNS is greater than 61.1 µM; with SN12C renal it was 31.3 µM; in the assay with RXF 393 renal, 83.5 µM; in the assay with SNB-75 CNS, greater than 100 µM; with OVCAR-5 ovarian it was 60.1 µM; in the assay on SK-MEL-28 melanoma, greater than 100 µM. Moreover, the TGI in the assay on HOP-62 NSCLC is 18 µM; in the assay on SF-295 CNS, 35.4 µM; in the assay with OVCAR-8 ovarian it was greater than 100 µM; in the assay on NCI-H23 lung, 6.2 µM; in the assay on HCT-116 colon, greater than 100 µM; in the assay with UACC-62 melanoma, 24.1 µM. In addition, the TGI in the assay on SR leukemia was 17.9 µM; in the assay on HT29 colon it was 24.5 µM; with RPMI-8226 leukemia, 43.9 µM; in the assay on SK-MEL-2 melanoma it was 73.3 µM.
For `O=C1CCC2c3ccccc3NCN12` (configuration not stated), the TGI in the assay with SF-268 CNS, in the assay with SN12C renal, in the assay with RXF 393 renal, in the assay on SNB-75 CNS, in the assay with OVCAR-5 ovarian and in the assay on HOP-92 NSCLC was greater than 100 µM each time. Further, the TGI with SK-MEL-28 melanoma, in the assay on HOP-62 NSCLC, in the assay with SF-295 CNS, with MDA-MB-435, in the assay on OVCAR-8 ovarian and in the assay with NCI-H23 lung was greater than 100 µM throughout. Also, the TGI in the assay on HCT-116 colon, in the assay with UACC-62 melanoma, in the assay on HT29 colon, in the assay on RPMI-8226 leukemia and in the assay with SK-MEL-2 melanoma was greater than 100 µM in each case.
On to `CCN(CC)C(=S)SCC(=O)Nc1nc2c(s1)CCCC2`, for which the TGI in the assay on SF-268 CNS, in the assay with SN12C renal, in the assay with SNB-75 CNS, with OVCAR-5 ovarian, in the assay on HOP-92 NSCLC and in the assay with SK-MEL-28 melanoma was greater than 100 µM each time. Besides, the TGI in the assay on HOP-62 NSCLC was greater than 100 µM; in the assay with SF-295 CNS, greater than 100 µM; in the assay with OVCAR-8 ovarian it was greater than 100 µM; in the assay with NCI-H23 lung it was greater than 100 µM; in the assay on HCT-116 colon, greater than 100 µM; in the assay with SR leukemia, 90.7 µM. The TGI with HT29 colon, in the assay on RPMI-8226 leukemia and in the assay on SK-MEL-2 melanoma was greater than 100 µM throughout.
Turning to `C=CCCCN1CCCC(C)C1=S` (configuration not stated), the TGI with SF-268 CNS, in the assay with RXF 393 renal, in the assay with SNB-75 CNS, with OVCAR-5 ovarian, with HOP-92 NSCLC and in the assay on SK-MEL-28 melanoma was greater than 100 µM in each case. For the same compound, the TGI in the assay with HOP-62 NSCLC, in the assay with SF-295 CNS, in the assay with OVCAR-8 ovarian, with NCI-H23 lung, with HCT-116 colon and in the assay with UACC-62 melanoma was greater than 100 µM each time. In addition, the TGI in the assay on SR leukemia, in the assay on HT29 colon, with RPMI-8226 leukemia and in the assay with SK-MEL-2 melanoma was greater than 100 µM each time.
As to `Cn1c(=O)cc2[nH]c3ccccc3n2c1=O`, the TGI in the assay with SF-268 CNS was greater than 100 µM; in the assay on RXF 393 renal it was 64.2 µM; in the assay on SNB-75 CNS it was greater than 100 µM; with OVCAR-5 ovarian it was greater than 100 µM; with HOP-92 NSCLC, greater than 100 µM; in the assay on SK-MEL-28 melanoma it was greater than 100 µM. Moreover, the TGI in the assay on HOP-62 NSCLC, with SF-295 CNS, in the assay with OVCAR-8 ovarian, in the assay with NCI-H23 lung, in the assay with UACC-62 melanoma and in the assay on SR leukemia was greater than 100 µM each time. The TGI with HT29 colon, in the assay on RPMI-8226 leukemia and in the assay on SK-MEL-2 melanoma was greater than 100 µM in each case.
As to `Cn1c2ccccc2c2ccc3c(c21)C(=O)C(c1ccccc1)=CC3=O`, the TGI was greater than 100 µM with SF-268 CNS; 52.3 µM in the assay on SN12C renal; greater than 100 µM in the assay with SNB-75 CNS; greater than 100 µM in the assay on OVCAR-5 ovarian; 56.2 µM in the assay on HOP-92 NSCLC; 51 µM in the assay on SK-MEL-28 melanoma. The TGI was greater than 100 µM in the assay on HOP-62 NSCLC; greater than 100 µM in the assay on SF-295 CNS; 42.6 µM in the assay on OVCAR-8 ovarian; greater than 100 µM with NCI-H23 lung; 38.2 µM in the assay with HCT-116 colon; greater than 100 µM in the assay with HT29 colon. Further, the values for the TGI in the assay with RPMI-8226 leukemia and in the assay with SK-MEL-2 melanoma were 99.2 µM and 45.3 µM, respectively.
For `CC(C)(C)[C@H]1CO[C@]2(c3ccccc3)[C@@H]3C[C@@H]3C(=O)N12`, the TGI with SF-268 CNS, in the assay on SN12C renal, in the assay with RXF 393 renal, in the assay on SNB-75 CNS, with OVCAR-5 ovarian and with HOP-92 NSCLC was greater than 100 µM throughout. In addition, the TGI with SK-MEL-28 melanoma, with HOP-62 NSCLC, in the assay on SF-295 CNS, in the assay with OVCAR-8 ovarian, with NCI-H23 lung and in the assay on UACC-62 melanoma was greater than 100 µM throughout. Further, the TGI in the assay on SR leukemia, in the assay with HT29 colon, in the assay on RPMI-8226 leukemia and in the assay with SK-MEL-2 melanoma was greater than 100 µM each time.
With `COC(=O)CC(C(C(=O)OC)C(=O)OC)N1C(=O)OC(c2ccccc2)C1c1ccccc1` (configuration not stated), the TGI in the assay on SF-268 CNS, in the assay on SN12C renal, in the assay with RXF 393 renal, in the assay with SNB-75 CNS, in the assay with OVCAR-5 ovarian and in the assay on HOP-92 NSCLC was greater than 100 µM throughout. Further, the TGI with SK-MEL-28 melanoma, in the assay with HOP-62 NSCLC, in the assay on SF-295 CNS, in the assay with OVCAR-8 ovarian, in the assay with NCI-H23 lung and in the assay on HCT-116 colon was greater than 100 µM each time. Also, the TGI in the assay on UACC-62 melanoma, with HT29 colon, in the assay on RPMI-8226 leukemia and in the assay with SK-MEL-2 melanoma was greater than 100 µM in each case.
Consider `CC1(C)c2ccccc2N2O[C@@H]3C(=O)N(c4ccccc4)C(=O)[C@@H]3C21c1ccccc1` (some centres not stated), for which the TGI in the assay with SF-268 CNS, in the assay with SN12C renal, in the assay with RXF 393 renal, in the assay with SNB-75 CNS, in the assay on SK-MEL-28 melanoma and in the assay on HOP-62 NSCLC was greater than 100 µM each time. For the same compound, the TGI in the assay with SF-295 CNS, in the assay with OVCAR-8 ovarian, with NCI-H23 lung, in the assay on UACC-62 melanoma, in the assay with HT29 colon and in the assay on RPMI-8226 leukemia was greater than 100 µM in each case. This compound also came in with a TGI with SK-MEL-2 melanoma greater than 100 µM.
As for `CC1(C)Cc2c(oc3ncnc(N)c23)CS1`, the TGI in the assay with SF-268 CNS, in the assay with SN12C renal, in the assay with SNB-75 CNS, with OVCAR-5 ovarian, with HOP-62 NSCLC and in the assay on SF-295 CNS was greater than 100 µM in each case. In addition, the TGI in the assay with OVCAR-8 ovarian, with NCI-H23 lung, in the assay on HCT-116 colon, in the assay on UACC-62 melanoma, in the assay on SR leukemia and in the assay with HT29 colon was greater than 100 µM each time. For the same compound, the TGI in the assay with RPMI-8226 leukemia and with SK-MEL-2 melanoma was greater than 100 µM each time.
With `Nc1nc(N)c2ncn(CCOC(c3ccccc3)P(=O)(O)O)c2n1` (configuration not stated), the TGI with SF-268 CNS, in the assay with SN12C renal, in the assay on RXF 393 renal, in the assay with SNB-75 CNS, in the assay on OVCAR-5 ovarian and in the assay on SK-MEL-28 melanoma was greater than 100 µM each time. Further, the TGI with SF-295 CNS, in the assay on OVCAR-8 ovarian, in the assay on NCI-H23 lung, in the assay on HCT-116 colon, in the assay on UACC-62 melanoma and in the assay with SR leukemia was greater than 100 µM in each case. The TGI in the assay on HT29 colon and in the assay with SK-MEL-2 melanoma was greater than 100 µM each time.
For `Cc1c2ccncc2c(C)c2c1[nH]c1ccc(Oc3ccccc3)cc12`, the TGI with SF-268 CNS was greater than 28.4 µM; with SN12C renal it was 4.69 µM; in the assay on RXF 393 renal it was 3.84 µM; in the assay with SNB-75 CNS, 8.73 µM; in the assay on OVCAR-5 ovarian it was 3.94 µM; in the assay with HOP-92 NSCLC, 13.9 µM. The TGI in the assay on SK-MEL-28 melanoma was 9.67 µM; in the assay on HOP-62 NSCLC, 4.42 µM; with SF-295 CNS, 12.6 µM; in the assay with OVCAR-8 ovarian, 3.48 µM; in the assay on NCI-H23 lung, greater than 53.1 µM; with UACC-62 melanoma, 3.16 µM. Further, the TGI was 12.3 µM in the assay on SR leukemia, 3.84 µM in the assay on HT29 colon and 5.27 µM with RPMI-8226 leukemia.
